Laboratory results reported in ChEMBL document CHEMBL4052696, “Varic acid analogues from fungus as PTP1B inhibitors: Biological evaluation and structure-activity relationships” (Bioorg Med Chem Lett, 2017).
The source made the active and inactive calls. No cut-off for these calls is given here.

Columns and labels:
Rattus norvegicus [1] = assay: Increase in insulin-induced glucose lowering effect in normal Wistar rat at 10 mg/kg, ip dosed 30 mins before insulin injection and measured 30 mins post insulin injection by glucose-oxidase assay; format: functional, organism-based
[2] = biological target: T1, Tyrosine-protein phosphatase non-receptor type 1 (Homo sapiens) (UniProt P18031); assay: Reversible inhibition of PTP1B (unknown origin) at 0.1 to 0.4 uM using p-nitrophenyl phosphate substrate incubated for 30 mins by Lineweaver-Burk double reciprocal plot
T1 sequence (whole entry): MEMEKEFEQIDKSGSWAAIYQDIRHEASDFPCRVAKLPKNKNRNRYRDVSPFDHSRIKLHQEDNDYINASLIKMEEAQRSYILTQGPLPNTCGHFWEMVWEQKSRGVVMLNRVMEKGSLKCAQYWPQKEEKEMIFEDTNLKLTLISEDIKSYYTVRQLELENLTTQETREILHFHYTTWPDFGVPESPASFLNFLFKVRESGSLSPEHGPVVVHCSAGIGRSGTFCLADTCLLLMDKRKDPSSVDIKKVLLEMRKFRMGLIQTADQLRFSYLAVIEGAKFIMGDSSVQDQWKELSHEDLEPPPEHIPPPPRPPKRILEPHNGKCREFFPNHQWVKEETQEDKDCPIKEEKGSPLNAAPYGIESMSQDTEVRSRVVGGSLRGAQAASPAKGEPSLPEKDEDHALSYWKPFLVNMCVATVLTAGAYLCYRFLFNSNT

Rattus norvegicus [3] = assay: Increase in insulin-induced glucose lowering effect in type 2 diabetic Wistar rat at 10 mg/kg, ip dosed 30 mins before insulin injection and measured 30 mins post insulin injection by glucose-oxidase assay; format: functional, organism-based

inhibition [2]: Active
Compound: CCCc1cc(OC(=O)c2c(O)cc(OC(=O)c3c(O)cc(O)cc3CCC)cc2CCC)cc(O)c1C(=O)O
Activity (Rattus norvegicus [1]): Active
Activity (Rattus norvegicus [3]): Active
